# Laboratory results: publication PMC8691750, “Euphorbia Factor L2 ameliorates the Progression of K/BxN Serum-Induced Arthritis by Blocking TLR7 Mediated IRAK4/IKKβ/IRF5 and NF-kB Signaling Pathways” (Frontiers in Pharmacology, 2021)
# “And” between values parts separate entries of the source, which are not always exact repeats. Equal entries are not always repeated.
# Test system: TLR signalling pathway genes
# Experiment: Toll-like Receptor Pathway PCR array of ankles
# Type: in vivo, C57BL/6 mice
# Conditions: for S40/SIA (fold change) / log2(fold change) S40/SIA: S40 group vs SIA group
# Description: Total RNA was isolated from the right ankles using the TRIzol Reagent (Invitrogen) and purified with RNeasy Mini Kit and RNase-Free DNase Set (Qiagen). RNA quality was determined using a spectrophotometer and was reversely transcribed using Wcgene® mRNA cDNA kit. The complementary DNA was used on the Toll-like Receptor Pathway PCR Array plate (Wcgene® biotech, China).
compound,measurement,setting,value
"C=C1C(OC(=O)c2ccccc2)CC2C(C=C(C)C(=O)C3(OC(C)=O)CC(C)C(OC(=O)c4ccccc4)C3C1OC(C)=O)C2(C)C (stereo not shown) [EFL2, Euphorbia factor L2]","fold-GAPDH, ACTB","ACTB mRNA relative to GAPDH (内参-GAPDH), individual mice of EFL2 group (S401, S402, S404, S405 = EFL2-1 to -4)",1.058 and 1.072 and 0.8044
same,"fold-GAPDH, B2M","B2M mRNA relative to GAPDH, individual mice of EFL2 group (S401, S402, S404, S405)",0.312 and 0.4388 and 0.3402 and 0.1942
same,"fold-GAPDH, Becn1","Becn1 mRNA relative to GAPDH, individual mice of EFL2 group (S401, S402, S404, S405)",0.001891 and 0.007192 and 0.004096
same,S40/SIA (fold change),Becn1 mRNA,0.2727
same,log2(fold change) S40/SIA,Becn1 mRNA,-1.875
same,"fold-GAPDH, Btk","Btk mRNA relative to GAPDH, individual mice of EFL2 group (S401, S402, S404, S405)",0.002403 and 0.001831 and 0.004678 and 0.001063
same,S40/SIA (fold change),Btk mRNA,0.3155
same,log2(fold change) S40/SIA,Btk mRNA,-1.664
same,"fold-GAPDH, Casp8","Casp8 mRNA relative to GAPDH, individual mice of EFL2 group (S401, S402, S404, S405)",0.01634 and 0.01358 and 0.009475
same,S40/SIA (fold change),Casp8 mRNA,0.2393
same,log2(fold change) S40/SIA,Casp8 mRNA,-2.063
same,"fold-GAPDH, Ccl2","Ccl2 mRNA relative to GAPDH, individual mice of EFL2 group (S401, S402, S404, S405)",0.01529 and 0.00629 and 0.0002036
same,S40/SIA (fold change),Ccl2 mRNA,0.0326
same,log2(fold change) S40/SIA,Ccl2 mRNA,-4.939
same,"fold-GAPDH, Ccl11","Ccl11 mRNA relative to GAPDH, individual mice of EFL2 group (S401, S402, S404, S405)",0.01036 and 0.008836 and 0.01327 and 0.005579
same,S40/SIA (fold change),Ccl11 mRNA,1.864
same,log2(fold change) S40/SIA,Ccl11 mRNA,0.8985
same,"fold-GAPDH, Ccl20","Ccl20 mRNA relative to GAPDH, individual mice of EFL2 group (S401, S402, S404, S405)",3.719e-5 and 0.0001299
same,"fold-GAPDH, Cd14","Cd14 mRNA relative to GAPDH, individual mice of EFL2 group (S401, S402, S404, S405)",0.005751 and 0.00806 and 0.003038 and 0.001749
same,"fold-GAPDH, Cd80","Cd80 mRNA relative to GAPDH, individual mice of EFL2 group (S401, S402, S404, S405)",0.002341 and 0.005041 and 0.0008698
same,"fold-GAPDH, Cd86","Cd86 mRNA relative to GAPDH, individual mice of EFL2 group (S401, S402, S404, S405)",0.0007215 and 0.0005777 and 0.0007714 and 0.0003428
same,S40/SIA (fold change),Cd86 mRNA,0.1925
same,log2(fold change) S40/SIA,Cd86 mRNA,-2.3771
same,"fold-GAPDH, Chuk","Chuk mRNA relative to GAPDH, individual mice of EFL2 group (S401, S402, S404, S405)",0.008767 and 0.01087 and 0.008829
same,S40/SIA (fold change),Chuk mRNA,0.3313
same,log2(fold change) S40/SIA,Chuk mRNA,-1.594
same,"fold-GAPDH, Clec4e","Clec4e mRNA relative to GAPDH, individual mice of EFL2 group (S401, S402, S404, S405)",0.0002637 and 0.002249 and 0.0004993 and 4.1493e-5
same,S40/SIA (fold change),Clec4e mRNA,0.0859
same,log2(fold change) S40/SIA,Clec4e mRNA,-3.541
same,"fold-GAPDH, Cxcl10","Cxcl10 mRNA relative to GAPDH, individual mice of EFL2 group (S401, S402, S404, S405)",2.1064e-5
same,S40/SIA (fold change),Cxcl10 mRNA,0.002337
same,log2(fold change) S40/SIA,Cxcl10 mRNA,-8.741
same,"fold-GAPDH, Eif2ak2","Eif2ak2 mRNA relative to GAPDH, individual mice of EFL2 group (S401, S402, S404, S405)",0.004437 and 0.00565 and 0.003196
same,"fold-GAPDH, Elk1","Elk1 mRNA relative to GAPDH, individual mice of EFL2 group (S401, S402, S404, S405)",0.006009 and 0.005652 and 0.006734 and 0.002589
same,S40/SIA (fold change),Elk1 mRNA,0.3565
same,log2(fold change) S40/SIA,Elk1 mRNA,-1.488
same,"fold-GAPDH, Fadd","Fadd mRNA relative to GAPDH, individual mice of EFL2 group (S401, S402, S404, S405)",0.001977 and 0.0009207 and 0.00158 and 0.0009332
same,S40/SIA (fold change),Fadd mRNA,0.1995
same,log2(fold change) S40/SIA,Fadd mRNA,-2.325
same,"fold-GAPDH, Fos","Fos mRNA relative to GAPDH, individual mice of EFL2 group (S401, S402, S404, S405)",0.02349 and 0.0137 and 0.0143 and 0.009915
same,"fold-GAPDH, HPRT1","HPRT1 mRNA relative to GAPDH, individual mice of EFL2 group (S401, S402, S404, S405)",0.01241 and 0.008273 and 0.01631
same,"fold-GAPDH, Hmgb1","Hmgb1 mRNA relative to GAPDH, individual mice of EFL2 group (S401, S402, S404, S405)",0.3089 and 0.3274 and 0.2681 and 0.1726
same,"fold-GAPDH, Hras1","Hras1 mRNA relative to GAPDH, individual mice of EFL2 group (S401, S402, S404, S405)",0.02419 and 0.02746 and 0.02268 and 0.01475
same,S40/SIA (fold change),Hras1 mRNA,0.4915
same,log2(fold change) S40/SIA,Hras1 mRNA,-1.025
same,"fold-GAPDH, Hspa1a","Hspa1a mRNA relative to GAPDH, individual mice of EFL2 group (S401, S402, S404, S405)",0.03203 and 0.003543 and 0.006228
same,"fold-GAPDH, Hspd1","Hspd1 mRNA relative to GAPDH, individual mice of EFL2 group (S401, S402, S404, S405)",0.02796 and 0.02518 and 0.003019 and 0.01313
same,S40/SIA (fold change),Hspd1 mRNA,0.2339
same,log2(fold change) S40/SIA,Hspd1 mRNA,-2.096
same,"fold-GAPDH, IRF5","IRF5 mRNA in ankles of STA mice, relative to GAPDH, one value per animal (samples S401-S405)",0.004631 and 0.004692 and 0.004033 and 0.001353
same,S40/SIA (fold change),IRF5 mRNA,0.3677
same,log2(fold change) S40/SIA,IRF5 mRNA,-1.443
same,"fold-GAPDH, Ikbkb","Ikbkb mRNA relative to GAPDH, individual mice of EFL2 group (S401, S402, S404, S405)",0.009029 and 0.01266 and 0.01025 and 0.004561
same,"fold-GAPDH, Il1a","Il1a mRNA relative to GAPDH, individual mice of EFL2 group (S401, S402, S404, S405)",0.0002392 and 0.0002831 and 9.48e-5
same,"fold-GAPDH, Il1b","Il1b mRNA relative to GAPDH, individual mice of EFL2 group (S401, S402, S404, S405)",0.005996 and 0.0009616 and 0.0008 and 0.0006699
same,S40/SIA (fold change),Il1b mRNA,0.0229
same,log2(fold change) S40/SIA,Il1b mRNA,-5.448
same,"fold-GAPDH, Il6","Il6 mRNA relative to GAPDH, individual mice of EFL2 group (S401, S402, S404, S405)",0.002971 and 0.0008677 and 0.0003997 and 0.0006556
same,S40/SIA (fold change),Il6 mRNA,0.03478
same,log2(fold change) S40/SIA,Il6 mRNA,-4.845
same,"fold-GAPDH, Il6ra","Il6ra mRNA in ankles of STA mice, relative to GAPDH, one value per animal (samples S401-S405)",0.009397 and 0.01121 and 0.004741
same,"fold-GAPDH, Il10","Il10 mRNA relative to GAPDH, individual mice of EFL2 group (S401, S402, S404, S405)",0.0001425 and 0.0002257 and 7.048e-5 and 9.932e-5
same,S40/SIA (fold change),Il10 mRNA,0.2443
same,log2(fold change) S40/SIA,Il10 mRNA,-2.033
same,"fold-GAPDH, Il12a","Il12a mRNA relative to GAPDH, individual mice of EFL2 group (S401, S402, S404, S405)",0.001377 and 0.0005874 and 0.0009712 and 0.0002213
same,"fold-GAPDH, Ilr1","Ilr1 mRNA in ankles of STA mice, relative to GAPDH, one value per animal (samples S401-S405)",0.01383 and 0.01561 and 0.01023 and 0.00774
same,S40/SIA (fold change),Ilr1 mRNA,0.09556
same,log2(fold change) S40/SIA,Ilr1 mRNA,-3.388
same,"fold-GAPDH, Irak1","Irak1 mRNA in ankles of STA mice, relative to GAPDH, one value per animal (samples S401-S405)",0.02263 and 0.02515 and 0.01545 and 0.008286
same,"fold-GAPDH, Irak2","Irak2 mRNA in ankles of STA mice, relative to GAPDH, one value per animal (samples S401-S405)",0.003024 and 0.004831 and 0.004355 and 0.002516
